The subject of data set [1] is human EPAS1 (Hif2α) cDNA in psiCHECK2 (Renilla luciferase/EPAS1 fusion mRNA) in Hep3B cells. Description: Hif2α RNAi trigger EC50 determination, dual-luciferase reporter assay. Format: cell-based. The note with it: UNA modified at site 6 or 7, EPAS1-psiCHECK2, same conditions, read-out: EC50 UNAs EC50. From the text:
Candidate sequences were identified by in silico analysis and screened as chemically modified canonical siRNAs in vitro. For screening purposes, the human EPAS1 (Hif2α) cDNA sequence (accession #NM 001430) was synthesized and cloned (DNA 2.0, Menlo Park, Calif.) into a commercially-available reporter-based screening plasmid, psiCHECK2 (Promega, Madison, Wis.) which generated a Renilla luciferase/EPAS1 fusion mRNA. For RNAi trigger efficacy evaluation, Hep3B cells, a human hepatocellular carcinoma line, were plated at 10,000 cells per well in 96-well format. Each of the 187 EPAS1 RNAi triggers, in two subsets, was co-transfected at two concentrations, 1 nM and 0.1 nM, with 25 ng EPAS1-psiCHECK2 plasmid DNA per well and 0.2 μL LipoFectamine 2000 (Life Technologies) per well. Gene knockdown was determined by measuring Renilla luciferase levels normalized to the levels of constitutively-expressed firefly luciferase, also present on the psiCHECK-2 plasmid, using the Dual Luciferase Reporter Assay (Promega, Madison, Wis.) Table 5.
The eight best canonical sequences were further evaluated by determining the EC50 concentration. Each trigger was assessed for knockdown under the same conditions and assays as above, but at 10 different concentrations ranging from 0.00051 nM to 10 nM. EC50 were determined using GraphPad Prism software. Each of the top five canonical sequences were modified to contain UNA at sites 6 and 7. These triggers, along with their parent canonical sequences, were evaluated side-by-side for EC50 concentration determination using the same conditions and assays as above, Table 6.
Background: Reporter assays use an easily measured gene product as a stand-in for the process of interest.

Data set [2] has as its system human (tumor) Hif2α (EPAS1) mRNA. In words: Hif2α expression in RCC tumor bearing mice after single injection of RGD targeted conjugates, 72 h, RT-qPCR (Table 11). The data set is classed as in vivo. The note with it: trigger 80 μg, polymer 126 280 μg. As to the method: Female athymic nude mice were anesthetized with ˜3% isoflourane and placed in the right lateral decubitus position. A small, 0.5-1 cm, longitudinally abdominal incision in the left flank was made. Using a moist cotton swab, the left kidney was lifted out of the peritoneum and gently stabilized. Just before injection, a 1.0 ml syringe was filled with the cell/Matrigel mixture and a 27 gauge needle catheter was attached to the syringe tip. The filled syringe was then attached to a syringe pump (Harvard Apparatus, model PHD2000) and primed to remove air. The tip of a 27-gauge needle catheter attached to a syringe was inserted just below the renal capsule near the caudal pole and the tip of the needle was then carefully advanced cranially along the capsule 3-4 mm. A 10 μl aliquot of 2:1 (vol:vol) cell/matrigel mixture containing about 300,000 cells was slowly injected into the kidney parenchyma using a syringe pump. The needle was left in the kidney for 15-20 seconds to ensure the injection was complete. The needle was then removed from the kidney and a cotton swab was placed over the injection site for 30 seconds to prevent leakage of the cells or bleeding. The kidney was then gently placed back into the abdomen and the abdominal wall was closed. Serum was collected every 7-14 days after implantation to monitor tumor growth using a commercial SEAP assay kit. For most studies, tumor mice were used 5-6 weeks after implantation, when tumor measurements were typically around 4-8 mm.
In preparation for quantitative PCR, total RNA was isolated from tissue samples homogenized in TriReagent (Molecular Research Center, Cincinnati, Ohio) following the manufacturer's protocol. Approximately 500 ng RNA was reverse-transcribed using the High Capacity cDNA Reverse Transcription Kit (Life Technologies). For human (tumor) Hif2α (EPAS1) expression, pre-manufactured TaqMan gene expression assays for human Hif2α (Catalog #4331182) and CycA (PPIA) Catalog #: 4326316E) were used in biplex reactions in triplicate using TaqMan Gene Expression Master Mix (Life Technologies) or VeriQuest Probe Master Mix (Affymetrix). For human (tumor) VegFa (VEGFA) expression, pre-manufactured TaqMan gene expression assays for human VegFa (Catalog #4331182, Assay ID: Hs00900055) and CycA (Part#: 4326316E) were used in biplex reactions in triplicate using TaqMan Gene Expression Master Mix (Life Technologies) or VeriQuest Probe Master Mix (Affymetrix). Quantitative PCR was performed by using a 7500 Fast or StepOnePlus Real-Time PCR system (Life Technologies). The ΔΔCT method was used to calculate relative gene expression.
RGD targeted HiF2α-RNAi trigger delivery polymer conjugates were formed using polymer 126, 100A, or 006. The RNAi trigger, μg indicates the quantity of trigger reacted with polymer. The polymer was modified with the indicated RGD mimic and PEG modifying agents as described above. Kidney RCC tumor-bearing mice were generated as described and treated with a single tail vein injection of isotonic glucose (G1) or the indicated Hif2α RNAi trigger-delivery polymer conjugate. Mice were euthanized 72 h (day 4) after injection and total RNA was prepared from kidney tumor using Trizol reagent following manufacturer's recommendation. Relative HiF2α mRNA levels were determined by RT-qPCR as described and compared to mice treated with delivery buffer (isotonic glucose) only (Table 11).

Data set [3] has the same test system. In words: Hif2α knockdown in orthotopic RCC tumor bearing mice, single injection of RNAi trigger-delivery polymer conjugate, RT-qPCR (Table 7). Format: in vivo. Particulars: RNAi trigger 80 μg, polymer 126 400 μg; single tail vein injection; relative to isotonic glucose. In outline: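 A single intravenous dose of Hif2α RNAi trigger–delivery polymer conjugate, or isotonic glucose vehicle, was given to nude mice with subcapsular A498-SEAP renal tumours (about 5–6 weeks old). At the indicated time, tumour RNA was assayed by biplex TaqMan qPCR against CycA, and relative expression was calculated by ΔΔCT versus vehicle.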
A general note: Real-time PCR tracks product formation cycle by cycle.

Strand notation (5' to 3'): a small letter for the sugar, then the base; units joined by * are phosphorothioate-linked, units joined directly phosphodiester-linked; [ ] holds rarer units or linkages, { } end groups; capitals alone tell only the bases. [UNA-N] = unlocked nucleic acid (N: the base); [invdT] = inverted (3'-3') thymidine; d = 2'-deoxy (DNA); m = 2'-O-methyl; f = 2'-fluoro

For orientation: EC50 means the concentration needed to bring the measured effect to its halfway point.

Regarding “AD00997: Hif2α RNAi trigger, XD-02415 sequence modified to contain UNA at site 7 (antisense dTfAmAfGmUfU[UNA-A]fAmGfCmUfCmCfCmAfUmAfCmAdT*dT; sense fUmGfUmAfUmGfGmGfAmGfCmUfUmAfAmCfUmUfA[invdT])”, in data set [1], the concentration for a half-maximal effect (EC50) came out at 0.183 nM. Take “AD00995: Hif2α RNAi trigger, XD-02404 sequence modified to contain UNA at site 7 (antisense dTfAmAfAmUfC[UNA-G]fUmUfAmCfGmUfUmGfAmCfAmGdT*dT; sense dTfGmAfGmGfAmGfCmUfUmGfUmGfUmGfUmUfCmGdT*dT)”: the EC50 in data set [1] came to 0.169 nM. Same read-out and setting: the value for “AD00996: Hif2α RNAi trigger, XD-02407 sequence modified to contain UNA at site 7 (antisense dTfUmUfCmAfU[UNA-G]fAmAfAmUfCmGfUmUfAmCfGmUdT*dT; sense fAmCfGmUfAmAfCmGfAmUfUmUfCmAfUmGfAmAfA[invdT])” was 0.118 nM; that for “AD00993: Hif2α RNAi trigger, XD-02335 sequence modified to contain UNA at site 7 (antisense dTfGmUfAmAfA[UNA-A]fCmAfAmUfUmGfUmGfUmAfCmUdT*dT; sense fAmGfUmAfCmAfCmAfAmUfUmGfUmUfUmUfAmCfA[invdT])” was 0.55 nM; that for “AD00991: Hif2α RNAi trigger, XD-02407 sequence modified to contain UNA at site 6 (antisense dTfUmUfCmA[UNA-U]mGfAmAfAmUfCmGfUmUfAmCfGmUdT*dT; sense fAmCfGmUfAmAfCmGfAmUfUmUfCmAfUmGfAmAfA[invdT])” was 0.35 nM.

Turning to “AD00994: Hif2α RNAi trigger, XD-02371 sequence modified to contain UNA at site 7 (antisense dTfCmUfAmGfC[UNA-A]fAmCfAmAfAmAfCmCfUmUfAmAdT*dT; sense fUmUfAmAfGmGfUmUfUmUfGmUfUmGfCmUfAmGfA[invdT])”, in data set [1], the half-maximal effective concentration (EC50) was 0.0807 nM.

As for “AD00989: Hif2α RNAi trigger, XD-02371 sequence modified to contain UNA at site 6 (antisense dTfCmUfAmG[UNA-C]mAfAmCfAmAfAmAfCmCfUmUfAmAdT*dT; sense fUmUfAmAfGmGfUmUfUmUfGmUfUmGfCmUfAmGfA[invdT])”, the EC50 in data set [1] worked out at 0.375 nM. Same read-out and setting: the value for “AD00992: Hif2α RNAi trigger, XD-02415 sequence modified to contain UNA at site 6 (antisense dTfAmAfGmU[UNA-U]mAfAmGfCmUfCmCfCmAfUmAfCmAdT*dT; sense fUmGfUmAfUmGfGmGfAmGfCmUfUmAfAmCfUmUfA[invdT])” was 0.142 nM. On to “AD01031: Hif2α RNAi trigger duplex used in the multi-dose conjugate of Example 15 (antisense TUUCAUGAAAUCGUUACGUTT; sense ACGUAACGAUUUCAUGAAAT; Hif2alpha RNAi agent antisense strand; modified_base 2,4,6,8,10,12,14,16,18 /mod_base = “2′-deoxy-2′-fluoro corresponding nucleoside”; modified_base 3,5,7,9,11,13,15,17,19 /mod_base = “2′-O-methyl corresponding nucleoside”; modified_base 21 /mod_base = “5′-phosphorothioate corresponding nucleotide”; Hif2alpha RNAi agent sense strand; modified_base 1,3,5,7,9,11,13,15,17,19 /mod_base = “2′-deoxy-2′-fluoro corresponding nucleoside”; modified_base 2,4,6,8,10,12,14,16,18 /mod_base = “2′-O-methyl corresponding nucleoside”; modified_base 20 /mod_base = “3′-3′-linked nucleotide”; modified_base 1 /mo)”, for which the “Relative Expression day 4 (Hif2α)” value in data set [2] (RGD-PEG8-ACit-PABC-PNP 0.4×, PEG6-ACit-PABC-PNP) stood at 0.311; in data set [2] (RGD-PEG8-HyNic 0.5×, PEG12-ACit-PABC-PNP) it was 0.300. Besides, in data set [3], the “Relative Expression day 4 (Hif2α mRNA in kidney tumor)” value worked out at 0.20.

The record behind these values is US9976141B2, “Compositions and methods for inhibiting gene expression of Hif2alpha” (Arrowhead Madison Inc., priority 2015, dated 2018).
